The results in this text go back to patent EP0337441A2, “Expression of a functional form of a herpes virus DNA polymerase in yeast” (E.R. Squibb & Sons, Inc., priority 1988, dated 1989).

Where two headings read alike, the source gives them in different places.

The target in assay [1] is T1, HSV-1 DNA pol (Human herpesvirus 1, UniProt P04292). Nature of the assay: HSV DNA pol assay (high salt, 100 mM ammonium sulfate), 3H-TTP incorporation into nicked calf thymus DNA by cell extracts. Conditions: for high salt activity in the Y-MH202 yeast cell extracts (result in words): Y-MH202 extract, 23 µM ACVTP, 5.3 µM aphidicolin. The class given is biochemical. The procedure: (§1) In order to determine whether HSV pol protein was expressed and whether HSV specific DNA polymerase activity could be detected in yeast cells containing pMH202, the following experiments were performed. This description represents only one example of how such a strain can be constructed. Other examples may include a different yeast host strain and/or a different transformation procedure. Yeast cells (Y 294) were transformed with pMH101 (control plasmid without the HSV pol gene) or pMH202 (expression plasmid with HSV pol gene) DNAs. Transformation of the yeast cells was accomplished using the method of J. D. Beggs (1978. Nature 275: 104 - 109). The transformants were selected for uracil prototrophy by growth on minimal media containing 182.2 g/L sorbitol; 20 g/L glucose; 6.7 g/L yeast nitrogen base (Difco) supplemented with 30µg/ml leucine, 20µg/ml histidine, 20µg/ml tryptophan and 2% glucose but lacking uracil. One colony of each type (designated Y-MH101 or Y-MH202, respectively) was selected at random for further analysis. 100 ml overnight cultures were grown from these two strains in minimal media (0.7% yeast nitrogen base [Difco]) containing the required amino acids as described above and 2% raffinose. The following day, cultures were divided in half, cells were pelleted, resuspended in 100 ml of fresh media containing either 2% raffinose or 2% galactose and again grown overnight. The following day, the four cultures were pelleted at 4°C. Cell lysates were prepared as described by Johnson et al. (1985 . Cell 43:369 - 377). This represents only one example of how such a lysate may be prepared. Cell pellets were resuspended in 1 ml 50 mM Tris-HCl, pH 8.0; 50mM NaCl, 1% dimethylsulfoxide; 10% glycerol; 5mM beta-mercaptoethanol; 10mM EDTA; 2mM benzamidine; and 1mM phenylmethylsulfonylfluoride (PMSF). Lysis was achieved by vortexing the cells 15 - 20 times for 1 minute in the presence of an equal volume of acid-washed glass beads. The extent of lysis was monitored by microscopy. The lysed extracts were transferred to 1.5 ml microfuge tubes and centrifuged for 10 minutes at 12,000 x g. Extracts were stored at -80°C in 15% glycerol until use. The final protein concentration of each of the extracts was between 5 - 6 mg/ml.
T1 sequence (P04292 whole entry): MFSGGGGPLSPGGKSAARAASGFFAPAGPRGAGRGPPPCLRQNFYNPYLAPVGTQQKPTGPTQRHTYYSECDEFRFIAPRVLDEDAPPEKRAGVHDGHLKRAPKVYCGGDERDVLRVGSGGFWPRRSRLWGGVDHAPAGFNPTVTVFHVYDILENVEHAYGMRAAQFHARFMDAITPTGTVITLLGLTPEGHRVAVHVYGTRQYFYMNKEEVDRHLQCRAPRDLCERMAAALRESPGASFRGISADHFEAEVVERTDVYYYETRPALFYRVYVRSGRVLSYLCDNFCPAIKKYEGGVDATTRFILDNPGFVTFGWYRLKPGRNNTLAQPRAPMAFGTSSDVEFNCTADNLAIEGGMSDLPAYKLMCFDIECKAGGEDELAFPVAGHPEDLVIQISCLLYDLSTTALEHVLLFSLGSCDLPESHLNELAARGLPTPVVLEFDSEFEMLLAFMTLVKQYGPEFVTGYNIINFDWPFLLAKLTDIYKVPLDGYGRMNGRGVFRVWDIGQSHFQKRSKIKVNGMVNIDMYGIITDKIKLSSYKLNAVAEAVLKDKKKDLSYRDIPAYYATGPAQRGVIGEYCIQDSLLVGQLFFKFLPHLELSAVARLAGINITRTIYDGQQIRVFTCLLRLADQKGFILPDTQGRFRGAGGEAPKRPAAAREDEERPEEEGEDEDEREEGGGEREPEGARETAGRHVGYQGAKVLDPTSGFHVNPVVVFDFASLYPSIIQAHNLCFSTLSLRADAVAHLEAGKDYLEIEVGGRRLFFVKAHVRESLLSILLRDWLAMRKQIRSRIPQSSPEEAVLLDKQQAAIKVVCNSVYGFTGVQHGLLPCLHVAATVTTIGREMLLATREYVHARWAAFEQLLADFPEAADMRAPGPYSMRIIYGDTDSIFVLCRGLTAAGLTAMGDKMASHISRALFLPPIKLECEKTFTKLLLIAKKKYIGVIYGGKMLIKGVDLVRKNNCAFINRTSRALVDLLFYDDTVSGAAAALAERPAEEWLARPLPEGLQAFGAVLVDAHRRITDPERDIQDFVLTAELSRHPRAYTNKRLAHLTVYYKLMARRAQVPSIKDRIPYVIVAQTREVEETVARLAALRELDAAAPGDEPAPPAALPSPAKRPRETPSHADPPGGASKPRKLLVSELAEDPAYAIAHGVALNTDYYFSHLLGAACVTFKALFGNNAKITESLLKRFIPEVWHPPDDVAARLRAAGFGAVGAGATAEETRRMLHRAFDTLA
Infected cell extracts were prepared essentially as described by Karkas et al. (1986. J. Med. Chem. 29:842 - 848). HeLa S3 cells were infected with HSV-1 KOS at a multiplicity of infection of 10 plaque forming units per cell and harvested at 16 hours post infection. […]
(§2) The lysates were also analyzed for DNA polymerase enzyme activity. […]

Assay [2] concerns the target yeast alpha DNA pol (Saccharomyces cerevisiae, UniProt P13382). Put plainly: Yeast DNA polymerase (alpha pol) assay (low salt), 3H-TTP incorporation by yeast cell extracts. The class given is biochemical, Saccharomyces cerevesiae. The note with it: for low salt DNA pol activity, sensitivity to drug (result in words): all of the extracts tested (also HSV-infected HeLa extract), at the concentration tested; for inhibition at 5.3 µM: aphidicolin 5.3 µM. The procedure: as §1
The lysates were also analyzed for DNA polymerase enzyme activity. Each of the four yeast cell extracts was assayed for DNA pol activity under two sets of conditions. The yeast DNA pol assay conditions were designed to detect the alpha polymerase which should be present in all lysates. The HSV DNA pol assay conditions were chosen to detect HSV specific DNA pol activity which is enhanced by high salt (100mM ammonium sulfate). In contrast, the yeast alpha DNA pol is inhibited under these salt conditions. The assay for yeast DNA polymerase was performed essentially as described in Celniker and Campbell (1982. Cell 31:201 - 213), but without addition of ribonucleotide triphosphates. Reaction mixtures contained 5µl of enzyme extract (25 - 30 µg of protein) in 10mM Tris-HCl, pH 7.5; 10 mM MgCl₂; 10 mM (NH₄)₂SO₄; 0.1 mM DTT; 100 µM each of dATP, dCTP, dGTP; 100 µM ³H-TTP (10 cpm/pmol); 40 µg/ml nicked calf thymus DNA; and 2 mM spermidine in a final volume of 50 µl. The assay for the HSV-1 DNA pol was performed as follows. […] The filters were washed thoroughly, twice using 1N HCl and once using 95% ethanol; air dried and quantitated by scintillation counting using a LKB 1214 Rackbeta counter at 63% efficiency. […]

Assay [3] addresses T1, HSV-1 DNA pol. Put plainly: HSV DNA pol assay (high salt, 100 mM ammonium sulfate), 3H-TTP incorporation into nicked calf thymus DNA by cell extracts. Further details: made in house; host or cells: Saccharomyces cerevisiae Y294 carrying pMH202 (strain Y-MH202), galactose-induced, crude cell lysate. The class given is biochemical. Conditions: HSV pol assay conditions. The procedure:
In order to determine whether HSV pol protein was expressed and whether HSV specific DNA polymerase activity could be detected in yeast cells containing pMH202, the following experiments were performed. This description represents only one example of how such a strain can be constructed. Other examples may include a different yeast host strain and/or a different transformation procedure. Yeast cells (Y 294) were transformed with pMH101 (control plasmid without the HSV pol gene) or pMH202 (expression plasmid with HSV pol gene) DNAs. Transformation of the yeast cells was accomplished using the method of J. D. Beggs (1978. Nature 275: 104 - 109). The transformants were selected for uracil prototrophy by growth on minimal media containing 182.2 g/L sorbitol; 20 g/L glucose; 6.7 g/L yeast nitrogen base (Difco) supplemented with 30µg/ml leucine, 20µg/ml histidine, 20µg/ml tryptophan and 2% glucose but lacking uracil. One colony of each type (designated Y-MH101 or Y-MH202, respectively) was selected at random for further analysis. 100 ml overnight cultures were grown from these two strains in minimal media (0.7% yeast nitrogen base [Difco]) containing the required amino acids as described above and 2% raffinose. […] The extent of lysis was monitored by microscopy. […]
as §2

Chain of yeast alpha DNA pol (P13382 2-1468): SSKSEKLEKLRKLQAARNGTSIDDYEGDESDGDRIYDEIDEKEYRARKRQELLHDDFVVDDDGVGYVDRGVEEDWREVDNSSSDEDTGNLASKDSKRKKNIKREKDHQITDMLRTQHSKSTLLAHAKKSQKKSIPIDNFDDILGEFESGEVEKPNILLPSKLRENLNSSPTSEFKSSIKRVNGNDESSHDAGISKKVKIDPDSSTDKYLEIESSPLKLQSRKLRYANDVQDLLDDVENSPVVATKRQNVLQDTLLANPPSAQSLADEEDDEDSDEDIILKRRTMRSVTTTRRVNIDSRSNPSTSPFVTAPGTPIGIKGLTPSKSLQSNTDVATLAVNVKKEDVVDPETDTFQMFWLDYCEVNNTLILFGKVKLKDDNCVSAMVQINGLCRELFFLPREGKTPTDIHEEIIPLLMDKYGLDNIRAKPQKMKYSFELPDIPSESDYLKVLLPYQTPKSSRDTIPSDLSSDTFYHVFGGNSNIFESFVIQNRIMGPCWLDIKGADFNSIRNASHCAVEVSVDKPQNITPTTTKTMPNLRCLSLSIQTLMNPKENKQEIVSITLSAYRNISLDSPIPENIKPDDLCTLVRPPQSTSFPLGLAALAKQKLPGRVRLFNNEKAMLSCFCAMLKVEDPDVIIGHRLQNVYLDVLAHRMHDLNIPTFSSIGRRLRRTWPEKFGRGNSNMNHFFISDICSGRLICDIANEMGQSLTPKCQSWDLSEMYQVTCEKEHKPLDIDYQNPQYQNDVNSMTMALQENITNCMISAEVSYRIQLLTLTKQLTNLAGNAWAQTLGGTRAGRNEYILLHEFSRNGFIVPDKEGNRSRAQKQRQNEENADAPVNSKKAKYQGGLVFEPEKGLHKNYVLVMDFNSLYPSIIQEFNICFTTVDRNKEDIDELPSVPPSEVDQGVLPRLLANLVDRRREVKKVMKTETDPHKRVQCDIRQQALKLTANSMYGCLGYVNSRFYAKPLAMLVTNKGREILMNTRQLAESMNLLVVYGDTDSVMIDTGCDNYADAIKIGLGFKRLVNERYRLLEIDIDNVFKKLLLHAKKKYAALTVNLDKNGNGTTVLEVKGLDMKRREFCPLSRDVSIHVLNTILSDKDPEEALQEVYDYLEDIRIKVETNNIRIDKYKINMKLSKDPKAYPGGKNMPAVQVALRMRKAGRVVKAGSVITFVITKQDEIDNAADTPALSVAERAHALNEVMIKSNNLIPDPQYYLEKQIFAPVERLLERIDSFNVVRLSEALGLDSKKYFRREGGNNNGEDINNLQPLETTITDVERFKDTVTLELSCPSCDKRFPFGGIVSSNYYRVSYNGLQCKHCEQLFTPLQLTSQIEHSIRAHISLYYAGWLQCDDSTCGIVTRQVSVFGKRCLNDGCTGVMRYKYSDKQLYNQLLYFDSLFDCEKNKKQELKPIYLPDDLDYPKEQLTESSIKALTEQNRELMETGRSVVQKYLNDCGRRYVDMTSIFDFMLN

In the case of `Nc1nc2c(ncn2COCCOP(=O)(O)OP(=O)(O)OP(=O)(O)O)c(=O)[nH]1` [ACVTP, acyclovir triphosphate], the “high salt activity in the Y-MH202 yeast cell extracts (result in words)” value in assay [1] is “inhibited”. The inhibition at 23 µM is 93% in assay [1] (Yeast Expressor (Y-MH202, galactose) extract, HSV pol assay conditions, ACVTP 23 µM, read-out: % Inhibition by Drug ACVTP); 0% in assay [2] (Yeast Control (Y-MH101, galactose) extract, alpha pol assay conditions, ACVTP 23 µM, 0% means relative activity ≥1.0, read-out: % Inhibition by Drug ACVTP); 89% in assay [3] (HSV-infected HeLa cells extract, ACVTP 23 µM, read-out: % Inhibition by Drug ACVTP). The “low salt DNA pol activity, sensitivity to drug (result in words)” value in assay [2] was “not sensitive”.

As to `C[C@@]1(CO)[C@H](O)CC[C@@]2(C)[C@H]1CC[C@H]1C[C@@H]3C[C@@]12CC[C@]3(O)CO` [Aphidicolin, aphidicolin], the “high salt activity in the Y-MH202 yeast cell extracts (result in words)” value in assay [1] is “inhibited”. In addition, the inhibition at 5.3 µM in assay [1] (read-out: % Inhibition by Drug Aphidicolin, Yeast Expressor (Y-MH202, galactose) extract, HSV pol assay conditions, aphidicolin 5.3 µM) is 94%; in assay [2] (read-out: % Inhibition by Drug Aphidicolin, Yeast Control (Y-MH101, galactose) extract, alpha pol assay conditions), 88%; in assay [2] (read-out: % Inhibition by Drug Aphidicolin, Yeast Expressor (Y-MH202, galactose) extract, alpha pol assay conditions), 80%; in assay [3] (read-out: % Inhibition by Drug Aphidicolin, HSV-infected HeLa cells extract, aphidicolin 5.3 µM), 90%. Moreover, in assay [2], the “low salt DNA pol activity, sensitivity to drug (result in words)” value is given as “sensitive”.

The inhibition is the relative decrease from the control value, in per cent.
